Measurements from patent US20230165242A1, “RODENTICIDAL BAIT AND METHOD OF CONTROLLING TARGET HARMFUL RODENTS” (priority 2020, published 2023).

Tests used:
[1] = in vivo; cited from earlier work
[2] = tested on: warfarin-sensitive male OFA-Sprague-Dawley rats; test: Synergy of bromadiolone and cholecalciferol, gavage, survival; format: in vivo, rat; settings: gavage 5 consecutive days; bromadiolone 0.1 mg/kg alone, cholecalciferol 7.5 mg/kg alone, or both combined; after 20 days of observation
Text: A group of 10 warfarin-sensitive male OFA-Sprague-Dawley rats (Charles River, L′Arbresles, France), aged 10 weeks and with a body weight between 160 and 180 g, are fed by gavage for 5 consecutive days with a gavage solution containing bromadiolone (LIPHATECH, France) and cholecalciferol (Sigma-Aldrich, France) in a solvent consisting of 95% (v/v) of oil and 5% (v/v) of DMSO. During this period of gavage, the rats are fed with a conventional solid feed and water in unlimited amounts. The rats are fed by gavage with a volume of this gavage solution so as to administer an amount of bromadiolone corresponding to 0.1 mg of bromadiolone per kilogram of body weight of the rat fed by gavage and an amount of cholecalciferol corresponding to 7.5 mg of cholecalciferol per kilogram of body weight of the rat fed by gavage. The rats in two control groups, each consisting of 10 male OFA-Sprague-Dawley rats, are fed by gavage in the same conditions with gavage solutions containing, respectively, bromadiolone alone so as to administer an amount of bromadiolone corresponding to 0.1 mg of bromadiolone per kilogram of body weight of the rat fed by gavage and cholecalciferol alone so as to administer an amount of cholecalciferol corresponding to 7.5 mg of cholecalciferol per kilogram of body weight of the rat fed by gavage. […]

[3] = tested on: warfarin-sensitive male OFA-Sprague-Dawley rats; test: Prothrombin level, Quick's time (bromadiolone / cholecalciferol gavage); format: in vivo, rat
Text: Warfarin-sensitive male OFA-Sprague-Dawley rats (Charles River, L′Arbresles, France) are fed by gavage for 3 consecutive days with a gavage solution containing bromadiolone (LIPHATECH, France) and cholecalciferol (Sigma-Aldrich, France) in a solvent consisting of 95% (v/v) of oil and 5% (v/v) of DMSO. During this period of gavage, the rats are fed with a conventional solid feed and water in unlimited amounts. The concentrations of bromadiolone and cholecalciferol in the gavage solution are 0.1 g/kg (100 ppm) and 7.5 g/kg (7500 ppm) respectively. Each rat receives daily a volume of gavage solution calculated to correspond to 1 mL of gavage solution per kilogram of body weight. The OFA-Sprague-Dawley rats in two control groups are fed by gavage in the same conditions with gavage solutions containing bromadiolone (alone) at a concentration of 100 ppm or cholecalciferol (alone) at a concentration of 7500 ppm, respectively. 24 hours after the last gavage, a volume of blood is taken from each rat by intracardiac puncture and placed in a specimen tube containing sodium citrate. The animals are euthanized after puncture and the plasma is prepared by centrifugation. Quick's time (or clotting time) is evaluated on the plasma supplemented with sodium citrate, then decalcified and recalcified in the presence of calcium thromboplastin. Quick's time is evaluated by means of an optical device for clotting analysis (Option 2plus, Bio Mèrieux®). The results are presented [FIG. 2]. The average Quick's time measured on the plasma from the rats fed by gavage with bromadiolone (bar “B”) is 12.4 seconds (±1.8), the average Quick's time measured on the plasma from the rats fed by gavage with cholecalciferol (bar “C”) is 12.4 seconds (±0.9) and the average Quick's time measured on the plasma from the rats fed by gavage with the composition comprising bromadiolone and cholecalciferol (bar “D”) is 14.1 seconds (±2.7). The differences in values of Quick's time measured between the three groups of rats are not significant. The rats in the group of rats that received the combination of bromadiolone and cholecalciferol coagulate in the same way as the rats in the group of rats that received the gavage solution containing bromadiolone on the one hand and the rats in the group of rats that received the gavage solution containing cholecalciferol on the other hand. Quick's time for rats treated with a control solution formed from oil (95%, v/v) and DMSO (5%, v/v) is (bar “A”) 12.8 seconds (±2.3). Neither the gavage solution containing bromadiolone in combination with cholecalciferol, nor the gavage solution containing bromadiolone alone, nor the gavage solution containing cholecalciferol induces an increase of Quick's time relative to the control. […]

[4] = tested on: Female Sprague-Dawley rats that are homozygotic carriers of the Y139F mutation in the Vkorc1 gene; test: Synergy of difethialone and cholecalciferol on warfarin-resistant female Sprague-Dawley Y139F rats; format: in vivo, rat; settings: gavage once a day for 3 days; difethialone 0.125 mg/kg alone, cholecalciferol 7.5 mg/kg alone, or both combined; 22 days of observation
Text: Female Sprague-Dawley rats that are homozygotic carriers of the Y139F mutation in the Vkorc1 gene, aged 10 weeks, are acclimatized for 5 days in the presence of a conventional solid feed and water in unlimited amounts. These female Sprague-Dawley Y139F rats are fed by gavage once a day for 3 consecutive days with a gavage solution containing difethialone (LIPHATECH, France) and cholecalciferol (Sigma-Aldrich, France) in a solvent consisting of 95% (v/v) of oil and 5% (v/v) of DMSO. During this period of gavage, the rats are fed with a conventional solid feed and water in unlimited amounts. The amounts of difethialone and cholecalciferol administered are 0.125 mg per kilogram of body weight of the rat fed by gavage and 7.5 mg per kilogram of body weight of the rat fed by gavage, respectively. The rats in two control groups, each consisting of OFA-Sprague-Dawley […] rats, are fed by gavage in the same conditions with gavage solutions containing, respectively, difethialone alone so as to administer an amount of difethialone corresponding to 0.125 mg per kilogram of body weight of the rat fed by gavage and cholecalciferol alone so as to administer an amount of cholecalciferol corresponding to 7.5 mg per kilogram of body weight of the rat fed by gavage. The percentage of rats surviving gavage is noted daily for 21 days counting from the first day of gavage. […]

[5] = tested on: warfarin-sensitive male OFA-Sprague-Dawley rats; test: Dose/rodenticidal response effect of difethialone on warfarin-sensitive rats; format: in vivo, rat; settings: gavage, 21 days
Protocol: A gavage solution containing difethialone (LIPHATECH, France) in a solvent consisting of 95% (v/v) of oil and 5% (v/v) of DMSO is administered once a day for 3 consecutive days to warfarin-sensitive male OFA-Sprague-Dawley rats (Charles River, L′Arbresles, France), aged 10 weeks and with a body weight between 160 and 180 g. During this period of gavage, the rats are fed with a conventional solid feed and water in unlimited amounts. The doses of difethialone administered to the OFA-Sprague-Dawley rats, given in Table 6 hereunder, are expressed in micrograms of difethialone administered per kilogram of body weight of the gavage-fed rodent.
The percentage of rats surviving gavage is recorded daily for 21 days counting from the first day of gavage.

[6] = tested on: warfarin-sensitive male OFA-Sprague-Dawley rats; test: Synergy of difethialone and cholecalciferol on warfarin-sensitive rats, gavage, survival; format: in vivo, rat; settings: gavage once a day for 3 days; difethialone 125 μg/kg alone or combined with cholecalciferol 7.5 mg/kg; 20 days of observation
Text: A group of warfarin-sensitive male OFA-Sprague-Dawley rats (Charles River, L′Arbresles, France), aged 10 weeks and with a body weight between 160 and 180 g, are fed by gavage once a day for 3 consecutive days with a gavage solution containing difethialone (LIPHATECH, France) and cholecalciferol (Sigma-Aldrich, France) in a solvent consisting of 95% (v/v) of oil and 5% (v/v) of DMSO. During this period of gavage, the rats are fed with a conventional solid feed and water in unlimited amounts. The amounts of difethialone and cholecalciferol administered are 125 μg per kilogram of body weight of the rat fed by gavage and 7.5 mg per kilogram of body weight of the rat fed by gavage, respectively. The rats in two control groups, each consisting of OFA-Sprague-Dawley rats, are fed by gavage in the same conditions with gavage solutions containing difethialone alone (125 μg/kg) or cholecalciferol alone (7.5 mg/kg), respectively. The percentage of rats surviving gavage is recorded daily, for 20 days counting from the first day of gavage. The results presented [FIG. 3] show the variation of the percentage of rodents surviving (in %) as a function of time (t, in days) following the first day of gavage. The rats fed by gavage with the difethialone solution (♦) have 100% survival after 20 days of observation. […]

[7] = tested on: warfarin-sensitive male OFA-Sprague-Dawley rats; test: Prothrombin level, Quick's time (difethialone gavage); format: in vivo, rat; settings: difethialone solution 100 ppm, 1 mL/kg
Protocol: Nine warfarin-sensitive male OFA-Sprague-Dawley rats (Charles River, L′Arbresles, France) are fed by gavage for 3 consecutive days with difethialone (LIPHATECH, France) in solution in a mixture consisting of 90% (v/v) of oil and 10% (v/v) of DMSO. The concentration of difethialone in the gavage solution is 0.1 g/kg (100 ppm). Each rat receives daily a volume of gavage solution calculated to correspond to 1 mL of gavage solution per kilogram of its body weight […]. 24 hours after the last gavage, a volume of blood is taken from each rat by intracardiac puncture and placed in a specimen tube containing sodium citrate. The animals are euthanized after puncture and the plasma is prepared by centrifugation. […] Quick's time (or clotting time) is evaluated on the plasma supplemented with sodium citrate, then decalcified and recalcified in the presence of calcium thromboplastin. Quick's time is evaluated by means of an optical device for clotting analysis (Option 2plus, Bio Mèrieux®). The average Quick's time measured on the plasma from the rats fed by gavage with difethialone is 23.4 seconds (±6.1). For comparison, the average Quick's time of control rats fed by gavage with the solution without difethialone is 17.5 seconds (±2.1). The difference in values of Quick's time of the rats fed by gavage with the difethialone solution and with the control solution without difethialone is not significant.

[8] = tested on: male Sprague-Dawley rats that have undergone introgression, homozygotic carriers of the Y139F mutation in the Vkorc1 gene; test: Dose/rodenticidal response effect of difethialone on warfarin-resistant male Y139F rats; format: in vivo, rat; settings: for Mortality, %: gavage, 21 days
Protocol: A gavage solution containing difethialone (LIPHATECH, France) in a solvent consisting of 95% (v/v) of oil and 5% (v/v) of DMSO is administered once a day for 3 consecutive days to male Sprague-Dawley rats that have undergone introgression, which are homozygotic carriers of the Y139F mutation in the Vkorc1 gene. During this period of gavage, the rats are fed with a conventional solid feed and water in unlimited amounts. The doses of difethialone administered to the Sprague-Dawley rats that have undergone introgression, given in Table 9 hereunder, are expressed in micrograms of difethialone administered per kilogram of body weight of the gavage-fed rodent.
The percentage of rats surviving gavage is noted daily for 21 days counting from the first day of gavage. 100% of the Sprague-Dawley rats that had undergone introgression survive gavage for 3 days with 0.125 mg of difethialone per kilogram of body weight per day.

[9] = dose 100 μg/kg once a day for 3 days
[10] = dose 500 μg/kg once a day for 3 days

C=C1/C(=C\C=C2/CCC[C@]3(C)[C@@H]([C@H](C)CCCC(C)(C)O)CC[C@@H]23)C[C@@H](O)C[C@@H]1O [Calcitriol, 1,25-dihydroxycholecalciferol]
half-life in the body [1]: ~5 h

O=c1oc2ccccc2c(O)c1C(CC(O)c1ccc(-c2ccc(Br)cc2)cc1)c1ccccc1 (stereo not shown) [bromadiolone, 3-[3-(4′-bromo[1,1′-biphenyl]-4-yl)-3-hydroxy-1-phenylpropyl]-4-hydroxy-2H-1-benzopyran-2-one]
percentage of rats surviving [2]: 100% | anticoagulant effect (increase of Quick's time relative to the control) ([3]; 3 daily gavages, bromadiolone 100 ppm and/or cholecalciferol 7500 ppm solution, 1 mL/kg): not anticoagulants | average Quick's time (clotting time) ([3]; plasma 24 hours after last of 3 daily gavages, 1 mL/kg of solution with bromadiolone 100 ppm and/or cholecalciferol 7500 ppm): 12.4 s

O=c1sc2ccccc2c(O)c1C1CC(c2ccc(-c3ccc(Br)cc3)cc2)Cc2ccccc21 (stereo not shown) [difethialone, 3-(4′bromobiphenyl-4-yl)-1-(4-hydroxythiocoumarin-3-yl)-1,2,3,4-tetrahydronaphthalene]
percentage of rats surviving [4]: 100% | Mortality, % ([5]; dose 50 μg/kg once a day for 3 days): 0% | Mortality, % [5, 9]: 0% | Mortality, % ([5]; dose 150 μg/kg once a day for 3 days): 40% | Mortality, % ([5]; dose 200 μg/kg once a day for 3 days): 100% | Mortality, % [5, 10]: 100% | percentage of rats surviving [6]: 100% | anticoagulant effect (increase in Quick's time relative to the control) ([7]; 3 daily gavages): not anticoagulating | haemorrhagic sign ([7]; 3 daily gavages): No haemorrhagic sign | average Quick's time (clotting time) ([7]; plasma 24 hours after last of 3 daily gavages): 23.4 s | Mortality, % [8, 9]: 0% | Mortality, % ([8]; dose 125 μg/kg once a day for 3 days): 0% | Mortality, % ([8]; dose 250 μg/kg once a day for 3 days): 100% | Mortality, % [8, 10]: 100% | rats surviving gavage ([8]; gavage for 3 days with 0.125 mg of difethialone per kilogram of body weight per day): 100%
